Test system: 616215-338-R-J1-PDC complex spheroid viability
Assay: Anticancer human tumor 616215-338-R-J1-PDC patient-derived colon adenocarcinoma cell line growth inhibition [RAS]
Details: for viability, T/C: stronger effect = lower value
Procedure, shortened: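 Tumour cells grown as complex spheroids with HUVEC endothelial cells and mesenchymal stem cells, treated with RAS pathway inhibitor combinations. Each agent spans half-log steps from near clinical Cmax, or 10 microM where Cmax is unknown.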

[1] = curve of first compound, second compound 0.000949 µM
[2] = curve of first compound, second compound 0.003 µM
[3] = curve of first compound, second compound 0.00949 µM
[4] = curve of first compound, second compound 0.03 µM
[5] = curve of first compound, second compound 0.0949 µM
[6] = curve of first compound, second compound 0.3 µM
[7] = second compound 0.000949 µM, first compound 0.0316 µM
[8] = second compound 0.000949 µM, first compound 0.1 µM
[9] = second compound 0.000949 µM, first compound 0.316 µM
[10] = second compound 0.000949 µM, first compound 1 µM
[11] = second compound 0.003 µM, first compound 0.0316 µM
[12] = second compound 0.003 µM, first compound 0.1 µM
[13] = second compound 0.003 µM, first compound 0.316 µM
[14] = second compound 0.003 µM, first compound 1 µM
[15] = second compound 0.00949 µM, first compound 0.0316 µM
[16] = second compound 0.00949 µM, first compound 0.1 µM
[17] = second compound 0.00949 µM, first compound 0.316 µM
[18] = second compound 0.00949 µM, first compound 1 µM
[19] = second compound 0.03 µM, first compound 0.0316 µM
[20] = second compound 0.03 µM, first compound 0.1 µM
[21] = second compound 0.03 µM, first compound 0.316 µM
[22] = second compound 0.03 µM, first compound 1 µM
[23] = second compound 0.0949 µM, first compound 0.0316 µM
[24] = second compound 0.0949 µM, first compound 0.1 µM
[25] = second compound 0.0949 µM, first compound 0.316 µM
[26] = second compound 0.0949 µM, first compound 1 µM
[27] = second compound 0.3 µM, first compound 0.0316 µM
[28] = second compound 0.3 µM, first compound 0.1 µM
[29] = second compound 0.3 µM, first compound 0.316 µM
[30] = second compound 0.3 µM, first compound 1 µM
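Note: spheroids exposed to agents for seven days before viability readout.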
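Throughout, for viability, T/C: 100% = DMSO vehicle control viability.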

Question: Which results are given for `C=CC(=O)N1CCN(c2nc(OCC3CCCN3C)nc3c(F)c(-c4nc(N)cc(C)c4C(F)(F)F)c(Cl)cc23)C(C)C1` (stereo not drawn) + CCn1c(-c2cccnc2C(C)OC)c2c3cc(ccc31)N1CCOC(CC(NC(=O)C(C(C)C)N(C)C(=O)C3(F)CCN(C(=O)C#CC(C)(C)N(C)C)CC3)C(=O)N3CCCC(N3)C(=O)OCC(C)(C)C2)C1?
Answer: IC50 [1]: > 1000 nM; IC50 [2]: > 1000 nM; IC50 [3]: > 1000 nM; IC50 [4]: > 1000 nM; IC50 [5]: > 1000 nM; IC50 [6]: > 1000 nM; viability, T/C (second compound 0.000949 µM, first compound 0.00316 µM): 106%; viability, T/C (second compound 0.000949 µM, first compound 0.01 µM): 100%; viability, T/C [7]: 106%; viability, T/C [8]: 108%; viability, T/C [9]: 115%; viability, T/C [10]: 103%; viability, T/C (second compound 0.003 µM, first compound 0.00316 µM): 103%; viability, T/C (second compound 0.003 µM, first compound 0.01 µM): 114%; viability, T/C [11]: 100%; viability, T/C [12]: 111%; viability, T/C [13]: 116%; viability, T/C [14]: 101%; viability, T/C (second compound 0.00949 µM, first compound 0.00316 µM): 106%; viability, T/C (second compound 0.00949 µM, first compound 0.01 µM): 101%; viability, T/C [15]: 106%; viability, T/C [16]: 104%; viability, T/C [17]: 106%; viability, T/C [18]: 100%; viability, T/C (second compound 0.03 µM, first compound 0.00316 µM): 118%; viability, T/C (second compound 0.03 µM, first compound 0.01 µM): 110%; viability, T/C [19]: 105%; viability, T/C [20]: 115%; viability, T/C [21]: 101%; viability, T/C [22]: 98.6%; viability, T/C (second compound 0.0949 µM, first compound 0.00316 µM): 135%; viability, T/C (second compound 0.0949 µM, first compound 0.01 µM): 113%; viability, T/C [23]: 109%; viability, T/C [24]: 127%; viability, T/C [25]: 126%; viability, T/C [26]: 116%; viability, T/C (second compound 0.3 µM, first compound 0.00316 µM): 117%; viability, T/C (second compound 0.3 µM, first compound 0.01 µM): 108%; viability, T/C [27]: 107%; viability, T/C [28]: 112%; viability, T/C [29]: 113%; viability, T/C [30]: 107%

Question: Which results are given for `CC1(C)CCC(Nc2ncc(C(F)(F)F)c(-c3c[nH]c4c(P(C)(C)=O)c(C#N)ccc34)n2)CN1` (stereo not drawn) + C=CC(=O)N1CCN(c2nc(OCC3CCCN3C)nc3c(F)c(-c4nc(N)cc(C)c4C(F)(F)F)c(Cl)cc23)C(C)C1?
Answer: IC50 (curve of first compound, second compound 0.00316 µM): 12.8 nM; IC50 (curve of first compound, second compound 0.01 µM): 11.8 nM; IC50 (curve of first compound, second compound 0.0316 µM): 15.1 nM; IC50 (curve of first compound, second compound 0.1 µM): 16.1 nM; IC50 (curve of first compound, second compound 0.316 µM): 16.1 nM; IC50 (curve of first compound, second compound 1 µM): 8.99 nM; viability, T/C (second compound 0.00316 µM, first compound 0.000949 µM): 103%; viability, T/C (second compound 0.00316 µM, first compound 0.003 µM): 102%; viability, T/C (second compound 0.00316 µM, first compound 0.00949 µM): 56.7%; viability, T/C (second compound 0.00316 µM, first compound 0.03 µM): 33.5%; viability, T/C (second compound 0.00316 µM, first compound 0.0949 µM): 25.2%; viability, T/C (second compound 0.00316 µM, first compound 0.3 µM): 28.3%; viability, T/C (second compound 0.01 µM, first compound 0.000949 µM): 109%; viability, T/C (second compound 0.01 µM, first compound 0.003 µM): 97.8%; viability, T/C (second compound 0.01 µM, first compound 0.00949 µM): 54%; viability, T/C (second compound 0.01 µM, first compound 0.03 µM): 32%; viability, T/C (second compound 0.01 µM, first compound 0.0949 µM): 30.2%; viability, T/C (second compound 0.01 µM, first compound 0.3 µM): 25.7%; viability, T/C (second compound 0.0316 µM, first compound 0.000949 µM): 103%; viability, T/C (second compound 0.0316 µM, first compound 0.003 µM): 108%; viability, T/C (second compound 0.0316 µM, first compound 0.00949 µM): 62.3%; viability, T/C (second compound 0.0316 µM, first compound 0.03 µM): 35.4%; viability, T/C (second compound 0.0316 µM, first compound 0.0949 µM): 29.2%; viability, T/C (second compound 0.0316 µM, first compound 0.3 µM): 31%; viability, T/C (second compound 0.1 µM, first compound 0.000949 µM): 106%; viability, T/C (second compound 0.1 µM, first compound 0.003 µM): 101%; viability, T/C (second compound 0.1 µM, first compound 0.00949 µM): 64%; viability, T/C (second compound 0.1 µM, first compound 0.03 µM): 33.8%; viability, T/C (second compound 0.1 µM, first compound 0.0949 µM): 27.8%; viability, T/C (second compound 0.1 µM, first compound 0.3 µM): 27.6%; viability, T/C (second compound 0.316 µM, first compound 0.000949 µM): 102%; viability, T/C (second compound 0.316 µM, first compound 0.003 µM): 97.3%; viability, T/C (second compound 0.316 µM, first compound 0.00949 µM): 61.9%; viability, T/C (second compound 0.316 µM, first compound 0.03 µM): 36.6%; viability, T/C (second compound 0.316 µM, first compound 0.0949 µM): 29.1%; viability, T/C (second compound 0.316 µM, first compound 0.3 µM): 28.7%; viability, T/C (second compound 1 µM, first compound 0.000949 µM): 99.7%; viability, T/C (second compound 1 µM, first compound 0.003 µM): 94.1%; viability, T/C (second compound 1 µM, first compound 0.00949 µM): 47.7%; viability, T/C (second compound 1 µM, first compound 0.03 µM): 33.8%; viability, T/C (second compound 1 µM, first compound 0.0949 µM): 34.7%; viability, T/C (second compound 1 µM, first compound 0.3 µM): 28.4%

Question: `CC1(C)CCC(Nc2ncc(C(F)(F)F)c(-c3c[nH]c4c(P(C)(C)=O)c(C#N)ccc34)n2)CN1` (stereo not drawn) was tested. Which viability, T/C (compound 0.000949 µM) did it give?
Answer: 98.8% [middle of 4 runs]

Question: And the viability, T/C (compound 0.003 µM)?
Answer: 101% [middle of 4 runs]

Question: What about the viability, T/C (compound 0.00949 µM) of the same compound?
Answer: 66.1% [middle of 4 runs]

Question: And the viability, T/C (compound 0.03 µM)?
Answer: 40.8% [middle of 4 runs]

Question: What about the viability, T/C (compound 0.0949 µM) of the same compound?
Answer: 37% [middle of 4 runs]

Question: What about the viability, T/C (compound 0.3 µM) of the same compound?
Answer: 35.2% [middle of 4 runs]

Question: And the IC50 (curve of compound)?
Answer: 20.3 nM [middle of 4 runs]

Question: How did the IC50 [1] turn out when `CC(=O)OC12COC1CC(O)C1(C)C(=O)C(O)C3=C(C)C(OC(=O)C(O)C(NC(=O)OC(C)(C)C)c4ccccc4)CC(O)(C(OC(=O)c4ccccc4)C21)C3(C)C` (stereo not drawn) + CCn1c(-c2cc(N3CCN(C)CC3)cnc2C(C)OC)c2c3cc(ccc31)-c1csc(n1)CC(NC(=O)C1CC1C)C(=O)N1CCCC(N1)C(=O)OCC(C)(C)C2 was run?
Answer: < 31.6 nM

Question: And the IC50 [2]?
Answer: < 31.6 nM

Question: What about the IC50 [3] of the same compound?
Answer: < 31.6 nM

Question: And the IC50 [4]?
Answer: < 31.6 nM

Question: And the IC50 [5]?
Answer: < 31.6 nM

Question: What about the IC50 [6] of the same compound?
Answer: < 31.6 nM

Question: What about the viability, T/C [7] of the same compound?
Answer: 27.1%

Question: And the viability, T/C [8]?
Answer: 20.3%

Question: And the viability, T/C [9]?
Answer: 18.9%

Question: And the viability, T/C [10]?
Answer: 19.9%

Question: And the viability, T/C (second compound 0.000949 µM, first compound 3.16 µM)?
Answer: 20.7%

Question: What about the viability, T/C (second compound 0.000949 µM, first compound 10 µM) of the same compound?
Answer: 24%

Question: What about the viability, T/C [11] of the same compound?
Answer: 22.3%

Question: And the viability, T/C [12]?
Answer: 18.3%

Question: What about the viability, T/C [13] of the same compound?
Answer: 15.9%

Question: And the viability, T/C [14]?
Answer: 19.3%

Question: And the viability, T/C (second compound 0.003 µM, first compound 3.16 µM)?
Answer: 18.8%

Question: And the viability, T/C (second compound 0.003 µM, first compound 10 µM)?
Answer: 24%

Question: What about the viability, T/C [15] of the same compound?
Answer: 18.5%

Question: What about the viability, T/C [16] of the same compound?
Answer: 16.4%

Question: And the viability, T/C [17]?
Answer: 13.3%

Question: What about the viability, T/C [18] of the same compound?
Answer: 12%

Question: What about the viability, T/C (second compound 0.00949 µM, first compound 3.16 µM) of the same compound?
Answer: 17.2%

Question: What about the viability, T/C (second compound 0.00949 µM, first compound 10 µM) of the same compound?
Answer: 18.7%

Question: What about the viability, T/C [19] of the same compound?
Answer: 15.6%

Question: What about the viability, T/C [20] of the same compound?
Answer: 13.4%

Question: And the viability, T/C [21]?
Answer: 13.1%

Question: What about the viability, T/C [22] of the same compound?
Answer: 13.2%

Question: And the viability, T/C (second compound 0.03 µM, first compound 3.16 µM)?
Answer: 14.5%

Question: What about the viability, T/C (second compound 0.03 µM, first compound 10 µM) of the same compound?
Answer: 16.8%

Question: What about the viability, T/C [23] of the same compound?
Answer: 15.4%

Question: And the viability, T/C [24]?
Answer: 12.4%

Question: What about the viability, T/C [25] of the same compound?
Answer: 10.8%

Question: And the viability, T/C [26]?
Answer: 13.4%

Question: What about the viability, T/C (second compound 0.0949 µM, first compound 3.16 µM) of the same compound?
Answer: 13.5%

Question: What about the viability, T/C (second compound 0.0949 µM, first compound 10 µM) of the same compound?
Answer: 14%

Question: What about the viability, T/C [27] of the same compound?
Answer: 14.9%

Question: What about the viability, T/C [28] of the same compound?
Answer: 13.3%

Question: And the viability, T/C [29]?
Answer: 10.7%

Question: What about the viability, T/C [30] of the same compound?
Answer: 11.9%

Question: And the viability, T/C (second compound 0.3 µM, first compound 3.16 µM)?
Answer: 13.9%

Question: What about the viability, T/C (second compound 0.3 µM, first compound 10 µM) of the same compound?
Answer: 16.3%
